Legend:
[1] = target: Mitogen-activated protein kinase 6 (Homo sapiens) (UniProt Q16659); experiment: Selectivity interaction (KinomeScan (DiscoverX)) EUB0001049a MAPK6; details: at 1 µM
[2] = target: Tyrosine-protein kinase Lck (Homo sapiens, UniProt P06239); experiment: Selectivity interaction (KinomeScan (DiscoverX)) EUB0001079a LCK; details: at 1 µM
[3] = target: T1, Inhibitor of nuclear factor kappa-B kinase subunit beta (Homo sapiens) (UniProt O14920); experiment: Selectivity interaction (ActivX KiNativ screen (kinase selectivity in THP-1 cell lysates)) EUB0000639a IKBKB; assay type: subcellular; details: lysate, at 0.01 µM
T1 sequence (whole entry): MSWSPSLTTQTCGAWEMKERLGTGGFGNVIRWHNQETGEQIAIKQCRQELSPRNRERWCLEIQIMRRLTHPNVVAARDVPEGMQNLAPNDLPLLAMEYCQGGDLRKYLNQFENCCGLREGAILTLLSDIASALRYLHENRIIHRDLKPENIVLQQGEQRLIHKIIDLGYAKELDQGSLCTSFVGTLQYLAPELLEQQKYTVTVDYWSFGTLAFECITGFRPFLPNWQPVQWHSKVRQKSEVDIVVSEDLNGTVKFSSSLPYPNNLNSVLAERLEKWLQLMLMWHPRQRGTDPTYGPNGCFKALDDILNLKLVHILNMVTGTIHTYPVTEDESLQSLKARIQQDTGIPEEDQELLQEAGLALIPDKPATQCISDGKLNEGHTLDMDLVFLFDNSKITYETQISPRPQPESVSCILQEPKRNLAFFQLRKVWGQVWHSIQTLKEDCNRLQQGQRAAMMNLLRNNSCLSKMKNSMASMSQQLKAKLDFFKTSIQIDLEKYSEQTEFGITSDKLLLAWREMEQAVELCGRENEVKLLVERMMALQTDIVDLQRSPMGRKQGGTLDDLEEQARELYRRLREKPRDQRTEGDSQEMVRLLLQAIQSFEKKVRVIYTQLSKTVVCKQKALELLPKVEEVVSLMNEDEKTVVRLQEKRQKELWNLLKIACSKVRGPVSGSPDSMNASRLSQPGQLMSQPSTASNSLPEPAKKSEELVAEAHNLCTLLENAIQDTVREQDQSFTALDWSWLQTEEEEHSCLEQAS

[4] = target: T2, Serine/threonine-protein kinase ULK2 (Homo sapiens) (UniProt Q8IYT8); experiment: Selectivity interaction (Ambit KINOMEscan and KiNATiv profiling in Jurkat cells) EUB0000090b ULK2; assay type: cell-based; details: at 1 µM
T2 sequence (whole entry): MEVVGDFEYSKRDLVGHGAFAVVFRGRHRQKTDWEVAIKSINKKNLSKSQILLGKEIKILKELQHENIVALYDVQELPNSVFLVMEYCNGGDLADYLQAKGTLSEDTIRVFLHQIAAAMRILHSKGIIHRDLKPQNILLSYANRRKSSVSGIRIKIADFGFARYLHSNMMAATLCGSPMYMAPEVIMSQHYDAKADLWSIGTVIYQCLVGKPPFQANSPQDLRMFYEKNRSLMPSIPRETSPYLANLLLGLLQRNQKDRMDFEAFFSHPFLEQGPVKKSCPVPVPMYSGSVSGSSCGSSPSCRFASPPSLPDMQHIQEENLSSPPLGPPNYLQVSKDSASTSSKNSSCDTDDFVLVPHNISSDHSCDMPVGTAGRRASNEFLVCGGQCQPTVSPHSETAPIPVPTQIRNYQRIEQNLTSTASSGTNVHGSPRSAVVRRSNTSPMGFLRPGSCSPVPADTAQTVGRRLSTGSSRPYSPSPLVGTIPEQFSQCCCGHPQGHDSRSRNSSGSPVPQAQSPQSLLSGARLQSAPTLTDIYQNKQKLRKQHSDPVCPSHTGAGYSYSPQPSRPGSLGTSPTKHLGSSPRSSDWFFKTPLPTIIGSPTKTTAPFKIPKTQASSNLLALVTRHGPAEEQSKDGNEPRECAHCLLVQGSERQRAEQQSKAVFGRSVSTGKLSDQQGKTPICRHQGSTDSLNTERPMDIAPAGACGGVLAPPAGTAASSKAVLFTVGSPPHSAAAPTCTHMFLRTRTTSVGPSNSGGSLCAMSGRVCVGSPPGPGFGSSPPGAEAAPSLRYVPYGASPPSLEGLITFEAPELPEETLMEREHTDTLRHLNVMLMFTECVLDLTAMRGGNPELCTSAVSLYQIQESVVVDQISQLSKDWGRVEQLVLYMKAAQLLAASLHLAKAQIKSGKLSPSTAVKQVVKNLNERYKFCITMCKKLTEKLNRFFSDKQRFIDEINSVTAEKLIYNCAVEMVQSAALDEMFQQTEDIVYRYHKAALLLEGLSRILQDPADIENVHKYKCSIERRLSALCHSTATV

[5] = target: T3, Testis-specific serine/threonine-protein kinase 1 (Homo sapiens) (UniProt Q9BXA7); experiment: Selectivity interaction (KinomeScan (DiscoverX)) EUB0000045b TSSK1A
T3 sequence (whole entry): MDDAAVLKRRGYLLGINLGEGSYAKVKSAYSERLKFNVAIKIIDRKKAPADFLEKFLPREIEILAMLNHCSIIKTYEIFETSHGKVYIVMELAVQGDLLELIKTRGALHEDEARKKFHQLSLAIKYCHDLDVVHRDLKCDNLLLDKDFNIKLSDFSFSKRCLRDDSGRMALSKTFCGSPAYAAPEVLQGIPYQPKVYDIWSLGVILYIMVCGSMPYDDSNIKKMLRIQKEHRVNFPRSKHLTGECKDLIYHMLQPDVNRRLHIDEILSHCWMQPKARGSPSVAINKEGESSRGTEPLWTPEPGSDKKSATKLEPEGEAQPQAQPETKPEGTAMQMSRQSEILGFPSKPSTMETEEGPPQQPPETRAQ

[6] = target: Proto-oncogene tyrosine-protein kinase receptor Ret (Homo sapiens, UniProt P07949); details: at 10 µM
Chain of Proto-oncogene tyrosine-protein kinase receptor Ret (P07949 whole entry): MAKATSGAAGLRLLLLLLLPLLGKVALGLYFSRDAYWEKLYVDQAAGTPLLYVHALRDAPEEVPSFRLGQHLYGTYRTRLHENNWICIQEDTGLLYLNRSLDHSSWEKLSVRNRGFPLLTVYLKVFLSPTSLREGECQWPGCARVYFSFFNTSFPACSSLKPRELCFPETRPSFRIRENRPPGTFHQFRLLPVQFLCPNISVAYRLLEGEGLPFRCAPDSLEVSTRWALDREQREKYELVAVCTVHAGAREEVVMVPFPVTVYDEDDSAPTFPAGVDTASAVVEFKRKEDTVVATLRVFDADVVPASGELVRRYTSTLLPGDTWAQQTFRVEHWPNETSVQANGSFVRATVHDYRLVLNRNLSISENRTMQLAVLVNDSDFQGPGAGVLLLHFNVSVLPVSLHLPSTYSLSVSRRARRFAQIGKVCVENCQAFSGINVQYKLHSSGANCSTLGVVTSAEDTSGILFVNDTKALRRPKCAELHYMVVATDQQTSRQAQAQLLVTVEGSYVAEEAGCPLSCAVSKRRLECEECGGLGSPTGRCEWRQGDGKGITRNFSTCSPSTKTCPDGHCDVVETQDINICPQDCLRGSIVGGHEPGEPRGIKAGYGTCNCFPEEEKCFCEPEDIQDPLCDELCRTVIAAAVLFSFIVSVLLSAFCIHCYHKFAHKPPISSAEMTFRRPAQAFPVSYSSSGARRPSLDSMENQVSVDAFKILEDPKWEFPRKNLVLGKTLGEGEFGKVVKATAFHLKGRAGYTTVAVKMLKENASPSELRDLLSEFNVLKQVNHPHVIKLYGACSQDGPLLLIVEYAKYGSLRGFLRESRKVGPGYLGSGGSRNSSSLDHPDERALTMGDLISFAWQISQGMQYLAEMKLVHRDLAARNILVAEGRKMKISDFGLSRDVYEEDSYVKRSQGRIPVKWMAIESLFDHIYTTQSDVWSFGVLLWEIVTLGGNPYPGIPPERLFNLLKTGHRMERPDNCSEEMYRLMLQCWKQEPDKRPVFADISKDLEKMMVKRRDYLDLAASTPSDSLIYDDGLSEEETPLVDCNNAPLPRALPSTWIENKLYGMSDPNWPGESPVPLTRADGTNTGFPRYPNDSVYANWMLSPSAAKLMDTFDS

[7] = target: BMP-2-inducible protein kinase (Homo sapiens) (UniProt Q9NSY1); experiment: Selectivity interaction (KinomeScan (DiscoverX)) EUB0000655a BMP2K; details: at 10 µM
Chain of BMP-2-inducible protein kinase (Homo sapiens) (Q9NSY1 whole entry, looked up): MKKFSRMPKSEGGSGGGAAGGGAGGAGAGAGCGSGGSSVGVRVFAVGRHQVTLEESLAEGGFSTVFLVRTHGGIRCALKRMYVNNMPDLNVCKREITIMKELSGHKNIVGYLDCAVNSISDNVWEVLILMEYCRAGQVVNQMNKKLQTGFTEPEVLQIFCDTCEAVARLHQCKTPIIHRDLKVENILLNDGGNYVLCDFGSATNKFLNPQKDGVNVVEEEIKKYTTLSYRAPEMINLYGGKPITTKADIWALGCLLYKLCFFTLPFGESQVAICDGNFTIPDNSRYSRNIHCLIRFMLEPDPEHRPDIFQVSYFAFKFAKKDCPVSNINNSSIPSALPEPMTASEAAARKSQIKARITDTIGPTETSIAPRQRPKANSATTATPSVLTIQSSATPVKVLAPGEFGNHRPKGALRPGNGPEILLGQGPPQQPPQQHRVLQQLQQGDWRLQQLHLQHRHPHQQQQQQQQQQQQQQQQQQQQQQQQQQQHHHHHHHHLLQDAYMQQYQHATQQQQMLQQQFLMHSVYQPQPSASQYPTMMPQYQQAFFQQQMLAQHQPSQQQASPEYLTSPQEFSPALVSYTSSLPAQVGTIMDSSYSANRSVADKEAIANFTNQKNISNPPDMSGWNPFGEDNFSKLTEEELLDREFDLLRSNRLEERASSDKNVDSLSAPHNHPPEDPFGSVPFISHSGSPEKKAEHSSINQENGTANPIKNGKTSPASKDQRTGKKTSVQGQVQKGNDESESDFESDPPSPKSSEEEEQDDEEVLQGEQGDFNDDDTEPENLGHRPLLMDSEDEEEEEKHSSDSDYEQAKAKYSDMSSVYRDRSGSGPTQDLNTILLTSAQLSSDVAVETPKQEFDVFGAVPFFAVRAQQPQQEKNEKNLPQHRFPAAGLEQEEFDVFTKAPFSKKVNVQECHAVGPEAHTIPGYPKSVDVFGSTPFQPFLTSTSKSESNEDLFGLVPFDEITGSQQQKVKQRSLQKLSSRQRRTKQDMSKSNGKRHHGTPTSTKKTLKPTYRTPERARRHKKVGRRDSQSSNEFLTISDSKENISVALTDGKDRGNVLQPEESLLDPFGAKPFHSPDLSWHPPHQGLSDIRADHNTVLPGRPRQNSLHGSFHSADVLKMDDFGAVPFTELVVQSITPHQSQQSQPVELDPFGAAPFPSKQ

[8] = target: Sodium-dependent serotonin transporter (Homo sapiens, UniProt P31645); experiment: Selectivity interaction (Panel of non-epigenetic targets (kinases, GPCRs, ion channels, and transporters, Eurofins) ) EUB0000271b SLC6A4; details: at 1 µM
Chain of Sodium-dependent serotonin transporter (P31645 whole entry, looked up): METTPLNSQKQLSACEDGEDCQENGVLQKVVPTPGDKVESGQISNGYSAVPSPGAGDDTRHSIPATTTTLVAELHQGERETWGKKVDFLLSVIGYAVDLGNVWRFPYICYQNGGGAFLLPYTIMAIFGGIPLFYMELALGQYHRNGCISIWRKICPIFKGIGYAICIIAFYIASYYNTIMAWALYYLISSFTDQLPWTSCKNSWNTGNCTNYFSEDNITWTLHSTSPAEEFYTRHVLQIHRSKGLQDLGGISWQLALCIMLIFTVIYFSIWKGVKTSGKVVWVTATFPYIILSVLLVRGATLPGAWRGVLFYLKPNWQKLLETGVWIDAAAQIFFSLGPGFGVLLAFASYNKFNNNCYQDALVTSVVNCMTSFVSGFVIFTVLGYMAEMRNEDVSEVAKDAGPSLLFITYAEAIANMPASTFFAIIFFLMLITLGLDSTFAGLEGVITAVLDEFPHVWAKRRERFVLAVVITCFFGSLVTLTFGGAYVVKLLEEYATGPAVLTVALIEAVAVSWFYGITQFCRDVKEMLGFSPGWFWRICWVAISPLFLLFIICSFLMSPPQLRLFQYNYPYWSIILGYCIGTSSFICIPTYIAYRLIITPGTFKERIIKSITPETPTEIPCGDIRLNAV

Chain of Tyrosine-protein kinase Lck (P06239 2-509 limits assumed): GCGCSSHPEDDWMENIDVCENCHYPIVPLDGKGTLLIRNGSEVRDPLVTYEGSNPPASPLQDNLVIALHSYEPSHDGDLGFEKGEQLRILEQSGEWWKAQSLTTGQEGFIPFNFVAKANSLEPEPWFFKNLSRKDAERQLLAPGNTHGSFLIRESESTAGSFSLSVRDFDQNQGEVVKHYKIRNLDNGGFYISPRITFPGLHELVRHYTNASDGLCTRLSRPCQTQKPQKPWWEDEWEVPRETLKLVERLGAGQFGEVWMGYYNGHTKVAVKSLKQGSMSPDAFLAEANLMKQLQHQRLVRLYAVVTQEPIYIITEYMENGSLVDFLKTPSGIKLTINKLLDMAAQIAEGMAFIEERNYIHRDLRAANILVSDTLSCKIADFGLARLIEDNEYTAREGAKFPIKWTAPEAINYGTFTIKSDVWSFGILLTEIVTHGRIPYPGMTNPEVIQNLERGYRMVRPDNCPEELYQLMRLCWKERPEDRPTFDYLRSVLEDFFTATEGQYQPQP
Chain of Mitogen-activated protein kinase 6 (Homo sapiens) (Q16659 whole entry): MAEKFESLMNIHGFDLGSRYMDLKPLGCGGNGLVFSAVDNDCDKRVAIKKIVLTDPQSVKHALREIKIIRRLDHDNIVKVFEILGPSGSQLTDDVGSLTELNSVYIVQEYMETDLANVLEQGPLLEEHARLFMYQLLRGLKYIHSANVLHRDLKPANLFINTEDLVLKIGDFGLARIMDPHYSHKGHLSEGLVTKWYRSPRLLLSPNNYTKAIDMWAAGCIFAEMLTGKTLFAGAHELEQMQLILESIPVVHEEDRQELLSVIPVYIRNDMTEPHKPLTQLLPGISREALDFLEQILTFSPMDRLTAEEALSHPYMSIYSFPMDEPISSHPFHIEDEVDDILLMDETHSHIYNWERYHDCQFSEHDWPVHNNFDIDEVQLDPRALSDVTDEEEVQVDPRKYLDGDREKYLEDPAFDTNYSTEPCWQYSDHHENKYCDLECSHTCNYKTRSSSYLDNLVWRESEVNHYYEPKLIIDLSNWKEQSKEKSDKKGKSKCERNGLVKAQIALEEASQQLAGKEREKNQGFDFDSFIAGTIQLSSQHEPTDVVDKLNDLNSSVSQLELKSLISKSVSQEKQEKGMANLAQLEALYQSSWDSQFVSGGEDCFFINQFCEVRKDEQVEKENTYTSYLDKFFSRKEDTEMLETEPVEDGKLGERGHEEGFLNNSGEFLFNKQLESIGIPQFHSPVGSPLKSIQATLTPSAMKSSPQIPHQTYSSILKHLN

With COc1cc(Nc2nc(C)cc(-c3cnn4nc(OC)ccc34)n2)cc(C(F)(F)F)c1 the % of control [1] was 92%.

Nc1cnc(N2CCc3cc(S(=O)(=O)Nc4c(F)cc(Cl)cc4F)cc(N4CCCC4=O)c32)nc1 [TP-020n] gave a % of control [2] of 100%.

Work on CC[C@@H]1[C@H](F)C(=O)N[C@@H]1COc1nccc2cc(C(N)=O)c(OC)cc12 [ZIMLOVISERTIB] yielded a % of inhibition [3] of -4.2%.

CN(C)C/C=C/C(=O)Nc1ccc(C(=O)N2CCCC(Nc3ncc(Cl)c(-c4c[nH]c5ccccc45)n3)C2)cc1 (centres undefined) gave a % of control [4] of 100%.

Work on C=CC(=O)Nc1cc(-n2c(=O)ccc3cnc4ccc(-c5ccc(NS(C)(=O)=O)cc5)cc4c32)ccc1C yielded a % of control ([5]; at 1 µM) of 100% and a % of control ([5]; at 10 µM) of 74%.

With Cc1cc([C@@H](C)Nc2ccccc2C(=O)O)c2nc(N3CCOCC3)cc(=O)n2c1 [AZD-6482] the % of control [6] was 100%.

CN(C)CCOc1ccc(-c2nc(-c3ccncc3)c(-c3ccc4c(c3)CC/C4=N\O)[nH]2)cc1 gave a % of control [7] of 82%.

With Cc1cc(C)cc([C@@H]2c3cc(C)ccc3NC(=O)CN2C(=O)c2ccc(Br)s2)c1 the % of inhibition [8] was -17%.

— ChEMBL document CHEMBL5465560, “Selectivity Literature for EUbOPEN Chemogenomic Library” (2024)
